{
  "source": "patent US20260224716A1",
  "about": "“PTH ANALOGS FOR THE TREATMENT OF HYPOPARATHYROIDISM” (priority 2020, published 2026)",
  "key": {"[1]": {"experiment": "Cleavage half-life / conversion of PTH prodrugs in PBS pH 7.4, 37° C. by LC-MS", "type": "physicochemical", "settings": "for Percentage of prodrug: prodrug in PBS, LC-MS peak areas", "in_short": "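Prodrugs incubated in PBS pH 7.4 at 37 °C, aliquots sampled over time for LC-MS (10–80% acetonitrile/0.1% TFA gradient). Prodrug and drug quantified by relative peak areas; dissociation rate constant from log prodrug concentration versus time.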"}, "[2]": {"molecular_target": "T1, PTHR1 (Homo sapiens, UniProt Q03431)", "T1 construct": "host or cells: CHO-K1", "T1 sequence (Q03431 27-593)": "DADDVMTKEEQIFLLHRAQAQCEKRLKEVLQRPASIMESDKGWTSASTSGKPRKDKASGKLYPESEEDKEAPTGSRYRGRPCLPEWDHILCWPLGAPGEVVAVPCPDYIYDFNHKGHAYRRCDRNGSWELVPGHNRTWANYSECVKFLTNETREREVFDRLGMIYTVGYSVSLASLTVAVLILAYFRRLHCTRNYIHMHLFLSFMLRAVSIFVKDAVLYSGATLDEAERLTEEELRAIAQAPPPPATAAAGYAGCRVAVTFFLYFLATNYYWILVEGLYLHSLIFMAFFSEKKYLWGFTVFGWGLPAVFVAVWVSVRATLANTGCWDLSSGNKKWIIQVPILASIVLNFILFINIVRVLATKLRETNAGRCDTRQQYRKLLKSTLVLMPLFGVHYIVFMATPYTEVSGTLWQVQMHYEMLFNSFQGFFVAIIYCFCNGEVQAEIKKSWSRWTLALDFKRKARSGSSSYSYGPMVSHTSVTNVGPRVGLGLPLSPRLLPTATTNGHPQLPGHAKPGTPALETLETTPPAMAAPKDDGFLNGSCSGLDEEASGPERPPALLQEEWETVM", "experiment": "cAMP Hunter Teriparatide Bioassay (CHO-K1 PTHR1 cells)", "type": "cell-based", "method": "The assessment of the bioactivity of a prodrug relative to its drug form was conducted in a proprietary commercial assay as contracted with Eurofins-Discover Rx Corporation win a cAMP Hunter® Teriparatide Bioassay (95-0118Y2). An 11-point dose curve in agonist mode was conducted for each individual peptide or incubation condition. Every sample was run at each dose in triplicate.\nAn 11-point dose curve in agonist mode was conducted for each individual peptide or incubation condition. Every sample was run at each dose in triplicate.\nAn 11-point dose curve in agonist mode was conducted for each individual peptide at each concentration. Every sample was run at each dose in triplicate."}, "[3]": {"tested_on": "serum calcium", "experiment": "Serum calcium in rats after single subcutaneous dose (Example 10)", "type": "in vivo, Sprague-Dawley rats", "settings": "30 or 60 nmol/kg SC single dose; increase within the physiological range", "protocol": "A 96-well plate spectrophotometer (SpectraMax M5, Molecular Devices) was employed for detection. Serum Ca and Pi were measured on days 0, 1, 2, 4, 5 and 7. Absorbance (Ab) was measured at 650 nm for Ca and 340 nm for Pi. Manufacturer linearity is provided up to 15 mg/dl for Ca and 10 mg/dl for Pi."}, "[4]": {"tested_on": "serum calcium", "experiment": "Serum calcium in rats, repeat daily dosing 7 days (Example 13)", "type": "in vivo, Sprague-Dawley rats", "settings": "daily SC 7 days; SEQ ID NO: 77 20 nmol/kg, SEQ ID NO: 87 20 or 40 nmol/kg; returned to initial values after washout", "protocol": "Female Sprague-Dawley rats were single or double-housed and randomly assigned to four groups (n=5-6 per group) as described in Table 20, and then weighed.\nAfter the treatment ceased, the animals were monitored on days 9 and 11 (washout period).\nBody weight and food intake were measured on days 0, 1, 3, 5 and 7. Ca was measured on days 0, 1, 2, 3, 4, 7, 9 and 11. Pi was determined on the same samples, except for days 9 and 11."}, "[5]": {"tested_on": "serum calcium", "experiment": "Serum calcium in rats, repeat daily dosing 28 days (Example 14)", "type": "in vivo, Sprague-Dawley rats", "protocol": "Changes in body weight and food intake were also measured.\nBody weight and food intake were measured on Day 0 (immediately prior to peptide administration), 1, 3, 7, 10, 14, 17, 21, 24, 28, 31, and 35. Serum Ca was measured at the start of the experiment and on Days 7, 14, 21, 28, 29, 30, 31, 32 and 34. Blood samples were collected via tail laceration for determination of total Ca in serum using commercially available colorimetric assays."}, "[6]": {"tested_on": "serum calcium", "experiment": "Serum calcium in parathyroidectomized rats, four daily doses (Example 15)", "type": "in vivo, Sprague-Dawley rats", "settings": "for starting serum calcium concentration: before first dose", "source_text": "(§1) Rats were randomly distributed among 5 groups and injected subcutaneously for four consecutive days with either vehicle (sterile 0.9% NaCl solution; n=6), or SEQ ID NO; 87 (10, 25, 40 nmol/kg; n=8). Two separate vehicle treated groups of rats were studied. The first represented control rats surgically managed like the remaining rats, but their parathyroid gland was not removed (sham control). The second vehicle control group represented rats that were surgically managed in the same manner as the SEQ ID NO: 87 treated rats. Following surgery and one week prior to testing all the rats were placed on a defined diet at a specific calcium concentration.\n(§2) A 96-well plate spectrophotometer (SpectraMax M5, Molecular Devices) was employed for detection. […] Absorbance (Ab) was measured at 650 nm wavelength. Manufacturer provided linearity up to 15 mg/dL. The serum calcium was measured immediately prior to injection (time 0 hour), followed by 24, 48, 72, and 96 hours."}, "[7]": {"tested_on": "serum calcium", "experiment": "Serum calcium in parathyroidectomized rats, ten daily doses (Example 16)", "type": "in vivo, Sprague-Dawley rats", "settings": "for starting serum calcium concentration: before first dose", "source_text": "as §1, with “ten” for “four”, “vehicle” for “vehicle (sterile 0.9% NaCl solution; n=6),”\nas §2"}, "[8]": {"experiment": "Pharmacokinetics of SEQ ID 87 in monkeys, single subcutaneous dose (Example 17)", "type": "in vivo, cynomolgus monkeys", "settings": "FIGS. 26A, 26B", "method": "A total of three monkeys were used at each test dose. The monkeys ranged in age from 2-4 years old at beginning of the study and having a weight of at least 2.5 kg. The dose volume was 0.3 mL/kg. Individual dose volumes were calculated based on the animals' most recently recorded body weight.\nAnimals were not fasted prior to collection. Blood was be collected via the femoral vein (or another appropriate site). Blood samples were maintained at 5±3° C. (wet ice or equivalent) and centrifuged at 5±3° C. within 1 hour of the collection of each blood sample. The resultant plasma was transferred to a tube and then stored under conditions set to maintain −75±15° C. until analysis.\nPharmacokinetic mean concentration-time data was analyzed using non-compartmental methods (Phoenix® WinNonlin® Version 7.0 or higher) based on the route of administration. The following parameters were calculated whenever possible and as data allows: Cmax, Tmax, and AUC. Descriptive statistics were generated using Phoenix WinNonlin."}, "[9]": {"settings": "PTx rats, treatment group 10 nmol/kg"}, "[10]": {"settings": "PTx rats, treatment group 25 nmol/kg"}, "[11]": {"settings": "PTx rats, treatment group 40 nmol/kg"}},
  "data": [
    {"smiles": "CC[C@H](C)[C@H](NC(=O)[C@H](CCC(=O)O)NC(=O)[C@H](CO)NC(=O)[C@@H](NC(=O)[C@H](CO)NC(=O)CN(C)C(=O)[C@H](N)CCCCNC(=O)CC[C@H](NC(=O)COCCOCCNC(=O)COCCOCCNC(=O)CC[C@H](NC(=O)CCCCCCCCCCCCCCCCC(=O)O)C(=O)O)C(=O)O)C(C)C)C(=O)N[C@@H](CCC(N)=O)C(=O)N[C@@H](CC(C)C)C(=O)N[C@@H](CCSC)C(=O)N[C@@H](Cc1c[nH]cn1)C(=O)N[C@@H](CC(N)=O)C(=O)N[C@@H](CC(C)C)C(=O)NCC(=O)N[C@@H](CCCCN)C(=O)N[C@@H](Cc1c[nH]cn1)C(=O)N[C@@H](CC(C)C)C(=O)N[C@@H](CC(N)=O)C(=O)N[C@@H](CO)C(=O)N[C@@H](CCSC)C(=O)N[C@@H](CCC(=O)O)C(=O)N[C@@H](CCCNC(=N)N)C(=O)N[C@H](C(=O)N[C@@H](CCC(=O)O)C(=O)N[C@@H](Cc1c[nH]c2ccccc12)C(=O)N[C@@H](CC(C)C)C(=O)N[C@@H](CCCNC(=N)N)C(=O)N[C@@H](CCCCN)C(=O)N[C@@H](CCCCN)C(=O)N[C@@H](CC(C)C)C(=O)N[C@@H](CCC(N)=O)C(=O)N[C@@H](CC(=O)O)C(=O)N[C@H](C(=O)N[C@@H](Cc1c[nH]cn1)C(=O)N[C@@H](CCCCNC(=O)CC[C@H](NC(=O)COCCOCCNC(=O)COCCOCCNC(=O)CC[C@H](NC(=O)CCCCCCCCCCCCCCCCC(=O)O)C(=O)O)C(=O)O)C(=O)O)C(C)C)C(C)C", "note": "[SEQ ID NO: 87]", "values": [
      {"measurement": "half-life", "setting": "[1]; PBS buffer, pH 7.4, PBS, LCMS over 192 hours, FIG. 10", "result": 112, "unit": "h"},
      {"measurement": "Percentage of prodrug", "setting": "[1]; 0 h", "result": 100, "unit": "%"},
      {"measurement": "Percentage of prodrug", "setting": "[1]; 48 h", "result": 74, "unit": "%"},
      {"measurement": "Percentage of prodrug", "setting": "[1]; 72 h", "result": 62, "unit": "%"},
      {"measurement": "Percentage of prodrug", "setting": "[1]; 120 h", "result": 46, "unit": "%"},
      {"measurement": "Percentage of prodrug", "setting": "[1]; 192 h", "result": 31, "unit": "%"},
      {"measurement": "Hillslope", "setting": "[2]; FIG. 11, prodrug incubated in PBS 1 day", "result": 1.421},
      {"measurement": "Hillslope", "setting": "[2]; FIG. 11, prodrug incubated in PBS 2 day", "result": 2.102},
      {"measurement": "Hillslope", "setting": "[2]; FIG. 11, prodrug incubated in PBS 3 day", "result": 1.825},
      {"measurement": "Hillslope", "setting": "[2]; FIG. 11, prodrug incubated in PBS 5 day", "result": 2.102},
      {"measurement": "Hillslope", "setting": "[2]; FIG. 11, prodrug incubated in PBS 8 day", "result": 2.172},
      {"measurement": "PTH agonism", "setting": "[2]; conclusions from Table 14, FIGS. 8A-8C", "result": "full PTH agonist of high nM potency"},
      {"measurement": "time of peak of serum calcium increase", "setting": "[3]", "result": 3, "unit": "days"},
      {"measurement": "Serum Ca levels during the treatment period", "setting": "[4]", "result": "gradually increased"},
      {"measurement": "absolute increase in serum Ca over the course of the study", "setting": "[5]; 4 nmol/kg daily SC", "result": 1.356, "unit": "mg/dL"},
      {"measurement": "percentage increase in serum Ca", "setting": "[5]; 4 nmol/kg daily SC", "result": 14.7, "unit": "%"},
      {"measurement": "absolute increase in serum Ca over the course of the study", "setting": "[5]; 8 nmol/kg daily SC", "result": 1.452, "unit": "mg/dL"},
      {"measurement": "percentage increase in serum Ca", "setting": "[5]; 8 nmol/kg daily SC", "result": 16.7, "unit": "%"},
      {"measurement": "absolute increase in serum Ca over the course of the study", "setting": "[5]; 12 nmol/kg daily SC", "result": 2.072, "unit": "mg/dL"},
      {"measurement": "percentage increase in serum Ca", "setting": "[5]; 12 nmol/kg daily SC", "result": 23, "unit": "%"},
      {"measurement": "general health", "setting": "[5]; 4, 8, 12 nmol/kg daily SC", "result": "All animals appeared healthy"},
      {"measurement": "serum calcium versus sham control", "setting": "[6]; PTx rats, 25 nmol/kg daily SC, 72 hours", "result": "insignificantly different from the sham control rats"},
      {"measurement": "serum calcium versus sham control", "setting": "[6]; PTx rats, 40 nmol/kg daily SC, after 48 hours", "result": "slightly exceeding that of the sham control rats"},
      {"measurement": "serum calcium excess over the sham control", "setting": "[6]; PTx rats, 40 nmol/kg, […] (72 hours after last dose)", "result": "more than 0.2 nmol/ml"},
      {"measurement": "starting serum calcium concentration", "setting": "[6]; [9]", "result": 1.185, "unit": "nmol/µL"},
      {"measurement": "starting serum calcium concentration", "setting": "[6]; [10]", "result": 1.354, "unit": "nmol/µL"},
      {"measurement": "starting serum calcium concentration", "setting": "[6]; [11]", "result": 1.251, "unit": "nmol/µL"},
      {"measurement": "starting serum calcium, higher level than vehicle treated PTx-rats", "setting": "[6]; treatment group 10 nmol/kg", "result": 9.2, "unit": "%"},
      {"measurement": "starting serum calcium, higher level than vehicle treated PTx-rats", "setting": "[6]; treatment group 25 nmol/kg", "result": 24.8, "unit": "%"},
      {"measurement": "starting serum calcium, higher level than vehicle treated PTx-rats", "setting": "[6]; treatment group 40 nmol/kg", "result": 15.3, "unit": "%"},
      {"measurement": "serum calcium levels versus sham control", "setting": "[7]; PTx rats, 10, 25, 40 nmol/kg daily SC, after two days", "result": "virtually identical to sham control rats"},
      {"measurement": "serum calcium levels versus sham control", "setting": "[7]; PTx rats, mid and high-dose (25, 40 nmol/kg), four and seven days", "result": "matched or exceeded what was observed in the sham control rats"},
      {"measurement": "starting serum calcium concentration", "setting": "[7]; [9]", "result": 4.5, "unit": "mg/dL"},
      {"measurement": "starting serum calcium concentration", "setting": "[7]; [10]", "result": 5.028, "unit": "mg/dL"},
      {"measurement": "starting serum calcium concentration", "setting": "[7]; [11]", "result": 5.108, "unit": "mg/dL"},
      {"measurement": "starting serum calcium, decreased level versus PTx vehicle", "setting": "[7]; treatment group 10 nmol/kg", "result": 3.4, "unit": "%"},
      {"measurement": "starting serum calcium, increased level versus PTx vehicle", "setting": "[7]; treatment group 25 nmol/kg", "result": 7.9, "unit": "%"},
      {"measurement": "starting serum calcium, increased level versus PTx vehicle", "setting": "[7]; treatment group 40 nmol/kg", "result": 9.6, "unit": "%"},
      {"measurement": "difference of prodrug to drug serum concentration", "setting": "[8]", "result": "~4", "unit": "fold"}
    ]}
  ]
}
